This passage reports Kd results from patent US8466107B2, “Fibrin-binding peptides and conjugates thereof” (Bracco Imaging SpA, priority 2006, dated 2013).

Bridge positions count the residues as written; N and C are the ends. Square brackets hold non-standard residues; d marks the D form. Peptide text beside a SMILES is read from it. * marks the point of attachment. 5FAM = O=C1OC2(c3ccc(O)cc3Oc3cc(O)ccc32)c2ccc(C(=O)*)cc21; Cha = N[C@@H](CC1CCCCC1)C(=O)O; AEEA = NCCOCCOCC(=O)O

The target of this assay is DDE (fibrin-derived polypeptide) (Homo sapiens, UniProt P02671+P02675+P02679). Briefly: Direct binding fluorescence polarization (FP) assay using 5-carboxyfluorescein labeled peptides. The settings on record: 20 nM CF5-labeled peptide, serial dilutions of DDE, anisotropy read at 485 nm; read-out: KD (μM) Direct Binding (n = 2). As for the experimental part:
Assay of Fibrin Binding Peptides by Direct Binding Fluorescence Polarization (FP) Procedure using 5-Carboxyfluoresein Labeled Peptides
Protocol • 1. Prepare 1 mL of 40 nM solution of 5-carboxyfluorescein-labeled peptide in HEPES dilution buffer (HDB) with 0.01% Tween. • HDB (10 mM HEPES, 150 mM […], 2 mM CaCl2) • 2. Dilute the 40 nM solution to obtain 1 ml of a 20 nM solution of the test 5-carboxyfluorescein-labeled peptide. • 3. Prepare a solution of DDE at a concentration that will be approximately 5-10 fold greater than the expected KD. For the described assay an 8 μM concentration of DDE was prepared. • 4. Mix equal volumes of the DDE solution with the 40 nM peptide solution. • 5. Prepare serial dilutions of DDE in a solution consisting of the binding buffer with 0.01% Tween20 and 20 nM of the 5-carboxyfluorescein-labeled peptide. • 6. Make dilutions as shown in the following table in a Labsystems 384-well microplate and mix by repeated aspiration and dispensing of the solution into the wells. • 7. Centrifuge the plate at 2000 RPM for 5 minutes to remove air pockets in the wells. • 8. Read in Tecan Polarion Plate Reader at 485 nm to obtain the anisotropy value.
The anisotropy (in mP—millipolarization units) vs the logarithm of the concentration (micromoles/liter) of the receptor concentration is graphed. The dissociation constant is obtained at the midpoint of the curve whose extrema are Afree and Abound where Afree is the anisotropy of the free peptide and Abound is the anisotropy of the fully bound peptide. The theory, methods of operation and mathematical analysis is described in, for example, the following reference: Fluorescence Polarization Technical Resource Guide Technical Resource Guide 4th Edn. Invitrogen Corporation•501 Charmany Drive•Madison, Wis. 53719 USA. Particularly, the mathematical analysis of the data and obtaining binding constants is described in Chapter 8: Analysis of FP Binding Data pp 8-2-8-7.
In general terms: In fluorescence polarisation assays a small probe gives low polarisation when free and higher when bound to something large.

DDE (fibrin-derived polypeptide), sequence (P02671 124-216): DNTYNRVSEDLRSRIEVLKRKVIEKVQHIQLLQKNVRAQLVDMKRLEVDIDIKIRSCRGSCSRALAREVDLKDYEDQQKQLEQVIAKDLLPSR
DDE (fibrin-derived polypeptide), sequence (P02675 164-491): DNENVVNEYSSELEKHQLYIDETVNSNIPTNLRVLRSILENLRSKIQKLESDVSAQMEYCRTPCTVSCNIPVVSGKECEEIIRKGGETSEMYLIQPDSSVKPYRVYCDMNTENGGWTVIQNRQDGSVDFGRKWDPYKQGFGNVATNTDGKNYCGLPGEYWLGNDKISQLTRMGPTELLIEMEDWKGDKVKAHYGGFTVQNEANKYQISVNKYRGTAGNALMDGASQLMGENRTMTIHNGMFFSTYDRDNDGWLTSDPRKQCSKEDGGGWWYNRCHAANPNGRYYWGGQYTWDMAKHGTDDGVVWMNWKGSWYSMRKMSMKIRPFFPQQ
DDE (fibrin-derived polypeptide), sequence (P02679 114-432): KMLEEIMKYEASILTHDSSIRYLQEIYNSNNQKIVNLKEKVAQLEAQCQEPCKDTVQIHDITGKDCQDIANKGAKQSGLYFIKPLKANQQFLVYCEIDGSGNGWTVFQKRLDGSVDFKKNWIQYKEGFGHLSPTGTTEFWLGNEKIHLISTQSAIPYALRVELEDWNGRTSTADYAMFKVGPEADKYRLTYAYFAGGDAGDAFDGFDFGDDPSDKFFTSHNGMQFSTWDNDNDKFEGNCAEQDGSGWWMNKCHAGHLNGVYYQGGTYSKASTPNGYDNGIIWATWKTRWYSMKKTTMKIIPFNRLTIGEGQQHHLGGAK
DDE (fibrin-derived polypeptide), sequence (P02671 36-97): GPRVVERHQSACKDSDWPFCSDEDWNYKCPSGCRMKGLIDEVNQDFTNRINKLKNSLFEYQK
DDE (fibrin-derived polypeptide), sequence (P02675 45-152): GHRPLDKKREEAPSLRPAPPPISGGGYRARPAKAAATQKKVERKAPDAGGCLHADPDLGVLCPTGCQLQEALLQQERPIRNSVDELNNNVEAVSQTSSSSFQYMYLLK
DDE (fibrin-derived polypeptide), sequence (P02679 27-88): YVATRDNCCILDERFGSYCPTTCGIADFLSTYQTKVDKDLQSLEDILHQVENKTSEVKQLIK

On to `CC(=O)NCC(=O)N1CCC[C@H]1C(=O)N1CCC[C@H]1C(=O)NCC(=O)N[C@@H](Cc1c[nH]c2ccccc12)C(=O)N[C@@H](CCC(N)=O)C(=O)N1CCC[C@H]1C(=O)N[C@H]1CSSC[C@@H](C(=O)N[C@@H](Cc2c[nH]c3ccccc23)C(=O)N[C@@H](CC(=O)O)C(=O)N2CCC[C@H]2C(=O)NCC(=O)NCC(=O)NCC(=O)N[C@@H](CCCCNC(=O)c2ccc3c(c2)C(=O)OC32c3ccc(O)cc3Oc3cc(O)ccc32)C(N)=O)NC(=O)[C@H](Cc2ccccc2)NC(=O)[C@H]([C@@H](C)O)NC(=O)[C@H](Cc2c[nH]c3ccccc23)NC(=O)[C@H](CO)NC(=O)[C@H](CCC(=O)O)NC(=O)[C@H](Cc2c[nH]c3ccccc23)NC(=O)[C@@H]2CCCN2C1=O` [Seq014-CF5] (Ac-GPPGWQPCPWESWTFCWDPGGGK(5FAM)-NH2; disulfide 8-16), for which the Kd came to 0.25 µM.
In the case of `CC(=O)NCC(=O)N1CCC[C@H]1C(=O)N1CCC[C@H]1C(=O)NCC(=O)N[C@@H](Cc1c[nH]c2ccccc12)C(=O)N[C@@H](CCC(N)=O)C(=O)N1CCC[C@H]1C(=O)N[C@H]1CSSC[C@@H](C(=O)N[C@@H](Cc2c[nH]c3ccccc23)C(=O)N[C@@H](CC(=O)O)C(=O)N2CCC[C@H]2C(=O)NCC(=O)NCC(=O)NCC(=O)N[C@@H](CCCCNC(=O)c2ccc3c(c2)C(=O)OC32c3ccc(O)cc3Oc3cc(O)ccc32)C(N)=O)NC(=O)[C@H](Cc2ccccc2)NC(=O)[C@H]([C@@H](C)O)NC(=O)[C@H](Cc2c[nH]c3ccccc23)NC(=O)[C@H](CO)NC(=O)[C@H](CCC(=O)O)NC(=O)[C@H](C)NC(=O)[C@@H]2CCCN2C1=O` [Seq034-CF5] (Ac-GPPGWQPCPAESWTFCWDPGGGK(5FAM)-NH2; disulfide 8-16) it was 0.31 µM.
To `CC(=O)N[C@@H](CCCNC(=N)N)C(=O)N[C@@H](Cc1c[nH]c2ccccc12)C(=O)N[C@@H](CCC(N)=O)C(=O)N1CCC[C@H]1C(=O)N[C@H]1CSSC[C@@H](C(=O)N[C@@H](Cc2c[nH]c3ccccc23)C(=O)N[C@@H](CC(=O)O)C(=O)N2CCC[C@H]2C(=O)NCC(=O)NCC(=O)NCC(=O)N[C@@H](CCCCNC(=O)c2ccc3c(c2)C(=O)OC32c3ccc(O)cc3Oc3cc(O)ccc32)C(N)=O)NC(=O)[C@H](Cc2ccccc2)NC(=O)[C@H]([C@@H](C)O)NC(=O)[C@H](Cc2c[nH]c3ccccc23)NC(=O)[C@H](CO)NC(=O)[C@H](CCC(=O)O)NC(=O)[C@H](C)NC(=O)[C@@H]2CCCN2C1=O` [Seq049-CF5] (Ac-RWQPCPAESWTFCWDPGGGK(5FAM)-NH2; disulfide 5-13) belongs 0.21 µM; to `C[C@@H]1NC(=O)[C@@H]2CCCN2C(=O)[C@@H](NC(=O)[C@@H]2CCCN2C(=O)[C@H](CCC(N)=O)NC(=O)[C@H](Cc2c[nH]c3ccccc23)NC(=O)CN)CSSC[C@@H](C(=O)N[C@@H](Cc2c[nH]c3ccccc23)C(=O)N[C@@H](CC(=O)O)C(=O)N2CCC[C@H]2C(=O)NCC(=O)NCC(=O)NCC(=O)N[C@@H](CCCCNC(=O)c2ccc3c(c2)C(=O)OC32c3ccc(O)cc3Oc3cc(O)ccc32)C(N)=O)NC(=O)[C@H](CC2CCCCC2)NC(=O)[C@H]([C@@H](C)O)NC(=O)[C@H](Cc2c[nH]c3ccccc23)NC(=O)[C@H](CO)NC(=O)[C@H](CCC(=O)O)NC1=O` [Seq051-CF5, GWQPC*PAESWT-Cha-C*WDPGGGK(CF5)-NH2] (H-GWQPCPAESWT[Cha]CWDPGGGK(5FAM)-NH2; disulfide 5-13; N-terminus assumed), 0.06 µM.
In the case of `CC(=O)NCC(=O)NCC(=O)N[C@@H](CCCNC(=N)N)C(=O)NCC(=O)N[C@@H](Cc1c[nH]c2ccccc12)C(=O)N[C@@H](CCC(N)=O)C(=O)N1CCC[C@H]1C(=O)N[C@H]1CSSC[C@@H](C(=O)N[C@@H](Cc2c[nH]c3ccccc23)C(=O)N[C@@H](CC(=O)O)C(=O)N2CCC[C@H]2C(=O)NCC(=O)NCC(=O)NCC(=O)N[C@@H](CCCCNC(=O)c2ccc3c(c2)C(=O)OC32c3ccc(O)cc3Oc3cc(O)ccc32)C(N)=O)NC(=O)[C@H](Cc2ccccc2)NC(=O)[C@H]([C@@H](C)O)NC(=O)[C@H](Cc2c[nH]c3ccccc23)NC(=O)[C@H](CO)NC(=O)[C@H](CCC(=O)O)NC(=O)[C@H](C)NC(=O)[C@@H]2CCCN2C1=O` [Seq035-CF5] (Ac-GGRGWQPCPAESWTFCWDPGGGK(5FAM)-NH2; disulfide 8-16) it was 0.52 µM; in that of `CC(=O)N[C@@H](Cc1c[nH]c2ccccc12)C(=O)N[C@@H](CCC(N)=O)C(=O)N1CCC[C@H]1C(=O)N[C@H]1CSSC[C@@H](C(=O)N[C@@H](Cc2c[nH]c3ccccc23)C(=O)N[C@@H](CC(=O)O)C(=O)N2CCC[C@H]2C(=O)NCC(=O)NCC(=O)NCC(=O)N[C@@H](CCCCNC(=O)c2ccc3c(c2)C(=O)OC32c3ccc(O)cc3Oc3cc(O)ccc32)C(N)=O)NC(=O)[C@H](Cc2ccccc2)NC(=O)[C@H]([C@@H](C)O)NC(=O)[C@H](Cc2c[nH]c3ccccc23)NC(=O)[C@H](CO)NC(=O)[C@H](CCC(=O)O)NC(=O)[C@H](Cc2c[nH]c3ccccc23)NC(=O)[C@@H]2CCCN2C1=O` [Seq000-CF5, reference compound] (Ac-WQPCPWESWTFCWDPGGGK(5FAM)-NH2; disulfide 4-12), 0.39 µM; in that of `CC(=O)N[C@@H](Cc1c[nH]c2ccccc12)C(=O)N[C@@H](CCC(N)=O)C(=O)N1CCC[C@H]1C(=O)N[C@H]1CSSC[C@@H](C(=O)N[C@@H](Cc2c[nH]c3ccccc23)C(=O)N[C@@H](CC(=O)O)C(=O)N2CCC[C@H]2C(=O)NCC(=O)NCC(=O)NCC(=O)N[C@@H](CCCCNC(=O)c2ccc3c(c2)C(=O)OC32c3ccc(O)cc3Oc3cc(O)ccc32)C(N)=O)NC(=O)[C@H](CC2CCCCC2)NC(=O)[C@H]([C@@H](C)O)NC(=O)[C@H](Cc2c[nH]c3ccccc23)NC(=O)[C@H](CO)NC(=O)[C@H](CCC(=O)O)NC(=O)[C@H](Cc2c[nH]c3ccccc23)NC(=O)[C@@H]2CCCN2C1=O` [Seq018-CF5, Ac-WQPC*PWESWT-Cha-C*WDPGGGK(CF5)-NH2] (Ac-WQPCPWESWT[Cha]CWDPGGGK(5FAM)-NH2; disulfide 4-12), 0.2 µM.
For the molecule `C[C@@H]1NC(=O)[C@@H]2CCCN2C(=O)[C@@H](NC(=O)[C@@H]2CCCN2C(=O)[C@H](CCC(N)=O)NC(=O)[C@H](Cc2c[nH]c3ccccc23)NC(=O)[C@@H](N)CCCNC(=N)N)CSSC[C@@H](C(=O)N[C@@H](Cc2c[nH]c3ccccc23)C(=O)N[C@@H](CC(=O)O)C(=O)N2CCC[C@H]2C(=O)NCC(=O)NCC(=O)NCC(=O)N[C@@H](CCCCNC(=O)c2ccc3c(c2)C(=O)OC32c3ccc(O)cc3Oc3cc(O)ccc32)C(N)=O)NC(=O)[C@H](Cc2ccccc2)NC(=O)[C@H]([C@@H](C)O)NC(=O)[C@H](Cc2c[nH]c3ccccc23)NC(=O)[C@H](CO)NC(=O)[C@H](CCC(=O)O)NC1=O` [Seq056-CF5] (H-RWQPCPAESWTFCWDPGGGK(5FAM)-NH2; disulfide 5-13), the Kd was determined as 0.06 µM.
In the case of `CC(=O)N[C@@H](CO)C(=O)NCC(=O)N[C@@H](CO)C(=O)NCC(=O)NCCOCCOCC(=O)N[C@@H](Cc1c[nH]c2ccccc12)C(=O)N[C@@H](CCC(N)=O)C(=O)N1CCC[C@H]1C(=O)N[C@H]1CSSC[C@@H](C(=O)N[C@@H](Cc2c[nH]c3ccccc23)C(=O)N[C@@H](CC(=O)O)C(=O)N2CCC[C@H]2C(=O)NCC(=O)NCC(=O)NCC(=O)N[C@@H](CCCCNC(=O)c2ccc3c(c2)C(=O)OC32c3ccc(O)cc3Oc3cc(O)ccc32)C(N)=O)NC(=O)[C@H](Cc2ccccc2)NC(=O)[C@H]([C@@H](C)O)NC(=O)[C@H](Cc2c[nH]c3ccccc23)NC(=O)[C@H](CO)NC(=O)[C@H](CCC(=O)O)NC(=O)[C@H](Cc2c[nH]c3ccccc23)NC(=O)[C@@H]2CCCN2C1=O` [Seq017-CF5] (Ac-SGSG[AEEA]WQPCPWESWTFCWDPGGGK(5FAM)-NH2; disulfide 9-17) it was 0.45 µM.

In general, Kd refers to the equilibrium constant for the complex coming apart.
